Measurements taken from ChEMBL document CHEMBL6114992, “Design, synthesis, biological evaluation, and mechanism of action of new pyrazines as anticancer agents in vitro and in vivo” (Bioorg Med Chem, 2025).
Calls of active or inactive are those of the source. No cut-off for these calls is given here.

Key:
[1] = system: KG-1; test: Downregulation of c-Myc expression in human KG-1 cells incubated for 48 hrs by Western blot analysis; format: functional, cell-based; details: dose 0.5-2.5 µM
[2] = system: SK-OV-3; test: Induction of apoptosis in human SK-OV-3 cells assessed as early apoptotic cells at 1 uM incubated for 48 hrs by Annexin V-FITC/PI staining based flow cytometry (reference value: 0.08 %); format: functional
[3] = system: THP-1; test: Downregulation of c-Myc expression in human THP-1 cells incubated for 48 hrs by Western blot analysis; format: functional, cell-based; details: dose 0.5-2.5 µM
[4] = system: KG-1; test: Upregulation of Bax expression in human KG-1 cells incubated for 48 hrs by Western blot analysis; format: functional, cell-based; details: dose 0.5-2.5 µM
[5] = system: KG-1; test: Downregulation of Bcl-XL expression in human KG-1 cells incubated for 48 hrs by Western blot analysis; format: functional, cell-based; details: dose 0.5-2.5 µM
[6] = system: KG-1; test: Upregulation of p21 expression in human KG-1 cells incubated for 48 hrs by Western blot analysis; format: functional, cell-based; details: dose 0.5-2.5 µM
[7] = system: SK-OV-3; test: Downregulation of c-Myc expression in human SK-OV-3 cells incubated for 48 hrs by Western blot analysis; format: functional, cell-based; details: dose 0.5-2.5 µM
[8] = system: KG-1; test: Downregulation of YAP1 expression in human KG-1 cells incubated for 48 hrs by Western blot analysis; format: functional, cell-based; details: dose 0.5-2.5 µM
[9] = system: SK-OV-3; test: Induction of apoptosis in human SK-OV-3 cells assessed as necrotic cells at 5 uM incubated for 48 hrs by Annexin V-FITC/PI staining based flow cytometry (reference value: 4.45 %); format: functional
[10] = system: THP-1; test: Downregulation of Bcl-XL expression in human THP-1 cells incubated for 48 hrs by Western blot analysis; format: functional, cell-based; details: dose 0.5-2.5 µM
[11] = system: SK-OV-3; test: Downregulation of TAZ expression in human SK-OV-3 cells incubated for 48 hrs by Western blot analysis; format: functional, cell-based; details: dose 0.5-2.5 µM
[12] = biological target: Signal transducer and activator of transcription 3 (Homo sapiens) (UniProt P40763); test: Inhibition of STAT3 phosphorylation in human SK-OV-3 cells at 0.5 to 2.5 uM incubated for 48 hrs by Western blot analysis; format: cell-based; details: dose 0.5-2.5 µM
[13] = system: SK-OV-3; test: Induction of apoptosis in human SK-OV-3 cells assessed as viable cells at 5 uM incubated for 48 hrs by Annexin V-FITC/PI staining based flow cytometry (reference value: 90.97 %); format: functional; details: read-out: Activity
[14] = system: THP-1; test: Induction of apoptosis in human THP-1 cells assessed as late apoptotic cells at 0.5 uM incubated for 48 hrs by Annexin V-FITC/PI staining based flow cytometry (reference value: 0.74 %); format: functional
[15] = system: U-937; test: Induction of apoptosis in human U-937 cells assessed as necrotic cells at 1 uM incubated for 48 hrs by Annexin V-FITC/PI staining based flow cytometry (reference value: 2.03 %); format: functional
[16] = biological target: Signal transducer and activator of transcription 3 (Homo sapiens) (UniProt P40763); test: Inhibition of STAT3 phosphorylation in human U-937 cells at 0.5 to 2.5 uM incubated for 48 hrs by Western blot analysis; format: cell-based; details: dose 0.5-2.5 µM
[17] = system: U-937; test: Induction of apoptosis in human U-937 cells assessed as viable cells at 1 uM incubated for 48 hrs by Annexin V-FITC/PI staining based flow cytometry (reference value: 93.30 %); format: functional; details: read-out: Activity
[18] = system: SK-OV-3; test: Downregulation of GLI1 expression in human SK-OV-3 cells incubated for 48 hrs by Western blot analysis; format: functional, cell-based; details: dose 1-5 µM
[19] = system: U-937; test: Upregulation of p21 expression in human U-937 cells incubated for 48 hrs by Western blot analysis; format: functional, cell-based
[20] = system: U-937; test: Induction of apoptosis in human U-937 cells assessed as viable cells at 2.5 uM incubated for 48 hrs by Annexin V-FITC/PI staining based flow cytometry (reference value: 93.30 %); format: functional; details: read-out: Activity
[21] = biological target: Signal transducer and activator of transcription 3 (Homo sapiens) (UniProt P40763); test: Inhibition of STAT3 phosphorylation in human SK-OV-3 cells at 1 to 5 uM incubated for 48 hrs by Western blot analysis; format: cell-based; details: dose 1-5 µM
[22] = system: U-937; test: Induction of apoptosis in human U-937 cells assessed as early apoptotic cells at 0.5 uM incubated for 48 hrs by Annexin V-FITC/PI staining based flow cytometry (reference value: 2.72 %); format: functional
[23] = Toxicity in nude mouse xenografted with human SK-OV-3 cells assessed as histopathological change in heart at 30 to 60 mg/kg, ip qd treated for 14 days by H and E staining based analysis; format: organism-based; details: in vivo, 336 h, dose 30-60 mg/kg, time 14 day
[24] = system: THP-1; test: Downregulation of TAZ expression in human THP-1 cells incubated for 48 hrs by Western blot analysis; format: functional, cell-based; details: dose 0.5-2.5 µM
[25] = Toxicity in nude mouse xenografted with human SK-OV-3 cells assessed as body weight change at 30 to 60 mg/kg, ip qd treated for 14 days; format: organism-based; details: in vivo, 336 h, dose 30-60 mg/kg, time 14 day
[26] = system: U-937; test: Induction of apoptosis in human U-937 cells assessed as change in mitochondrial membrane potential at 2.5 uM incubated for 48 hrs by JC-1 staining based flow cytometry (reference value: 2.20 %); format: functional
[27] = system: U-937; test: Induction of apoptosis in human U-937 cells assessed as viable cells at 0.5 uM incubated for 48 hrs by Annexin V-FITC/PI staining based flow cytometry (reference value: 93.30 %); format: functional; details: read-out: Activity
[28] = system: U-937; test: Induction of apoptosis in human U-937 cells assessed as early apoptotic cells at 2.5 uM incubated for 48 hrs by Annexin V-FITC/PI staining based flow cytometry (reference value: 2.72 %); format: functional
[29] = Toxicity in nude mouse xenografted with human SK-OV-3 cells assessed as histopathological change in spleen at 30 to 60 mg/kg, ip qd treated for 14 days by H and E staining based analysis; format: organism-based; details: in vivo, 336 h, dose 30-60 mg/kg, time 14 day
[30] = Toxicity in nude mouse xenografted with human SK-OV-3 cells assessed as histopathological change in lungs at 30 to 60 mg/kg, ip qd treated for 14 days by H and E staining based analysis; format: organism-based; details: in vivo, 336 h, dose 30-60 mg/kg, time 14 day
[31] = system: U-937; test: Induction of apoptosis in human U-937 cells assessed as change in mitochondrial membrane potential at 5 uM incubated for 48 hrs by JC-1 staining based flow cytometry (reference value: 2.20 %); format: functional
[32] = system: SK-OV-3; test: Antitumor activity against human SK-OV-3 cells xenografted in nude mouse assessed as tumor growth suppression at 30 to 60 mg/kg, ip qd treated for 14 days; format: functional, organism-based; details: dose 30-60 mg/kg, time 14.0 day
[33] = system: U-937; test: Induction of apoptosis in human U-937 cells assessed as necrotic cells at 0.5 uM incubated for 48 hrs by Annexin V-FITC/PI staining based flow cytometry (reference value: 2.03 %); format: functional
[34] = system: U-937; test: Induction of apoptosis in human U-937 cells assessed as late apoptotic cells at 0.5 uM incubated for 48 hrs by Annexin V-FITC/PI staining based flow cytometry (reference value: 1.96 %); format: functional
[35] = Toxicity in nude mouse xenografted with human SK-OV-3 cells assessed as histopathological change in kidney at 30 to 60 mg/kg, ip qd treated for 14 days by H and E staining based analysis; format: organism-based; details: in vivo, 336 h, dose 30-60 mg/kg, time 14 day
[36] = system: U-937; test: Induction of apoptosis in human U-937 cells assessed as late apoptotic cells at 2.5 uM incubated for 48 hrs by Annexin V-FITC/PI staining based flow cytometry (reference value: 1.96 %); format: functional
[37] = Toxicity in nude mouse xenografted with human SK-OV-3 cells assessed as histopathological change in liver at 30 to 60 mg/kg, ip qd treated for 14 days by H and E staining based analysis; format: organism-based; details: in vivo, 336 h, dose 30-60 mg/kg, time 14 day

Chain of Signal transducer and activator of transcription 3 (Homo sapiens) (P40763 whole entry): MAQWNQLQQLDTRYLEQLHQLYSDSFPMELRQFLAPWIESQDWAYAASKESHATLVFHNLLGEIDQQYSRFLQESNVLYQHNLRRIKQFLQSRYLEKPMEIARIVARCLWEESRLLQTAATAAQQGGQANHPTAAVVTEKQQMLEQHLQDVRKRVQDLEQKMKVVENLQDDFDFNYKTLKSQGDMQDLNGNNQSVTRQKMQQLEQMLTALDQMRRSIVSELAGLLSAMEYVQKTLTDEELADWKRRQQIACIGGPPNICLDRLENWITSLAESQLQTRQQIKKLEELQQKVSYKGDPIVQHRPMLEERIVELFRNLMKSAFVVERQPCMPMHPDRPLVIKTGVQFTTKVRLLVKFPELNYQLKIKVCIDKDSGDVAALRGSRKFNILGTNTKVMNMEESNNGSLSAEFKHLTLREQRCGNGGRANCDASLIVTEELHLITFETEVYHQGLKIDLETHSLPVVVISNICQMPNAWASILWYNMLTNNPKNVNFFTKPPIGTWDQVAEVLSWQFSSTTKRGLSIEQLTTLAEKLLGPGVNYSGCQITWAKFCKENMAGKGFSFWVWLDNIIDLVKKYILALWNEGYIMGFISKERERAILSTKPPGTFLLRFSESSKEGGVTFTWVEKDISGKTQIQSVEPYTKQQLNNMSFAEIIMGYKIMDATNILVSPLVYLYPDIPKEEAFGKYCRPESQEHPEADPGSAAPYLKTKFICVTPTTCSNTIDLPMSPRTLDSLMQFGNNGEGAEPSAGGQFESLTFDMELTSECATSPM

In the case of `CCc1nccnc1C(=O)/C=C/c1ccccn1`, the Activity [1] is reported as “Dose-dependent-effect”, the Activity [2] is reported as 0.37% and the Activity [3] is reported as “Dose-dependent-effect”. The Activity [4] was “Dose-dependent-effect”, the Activity [5] was “Dose-dependent-effect” and the Activity [6] was “Dose-dependent-effect”. The Activity [7] was “Dose-dependent-effect”, the Activity [8] was “Dose-dependent-effect” and the Activity [9] was 8.84%. The Activity [10] was “Dose-dependent-effect”, the Activity [11] was “Dose-dependent-effect” and the inhibition [12] was “Active”. The viability at 5 µM [13] was 44.6% and the Activity [14] was 1.53%.
In the case of `Cc1nccnc1C(=O)/C=C/c1cccc(C#N)c1`, the Activity [15] is reported as 3.14%, the Activity [2] is reported as 1.09% and the inhibition [16] is reported as “Active”. The viability at 1 µM [17] was 76.2%, the Activity [18] was “Dose-dependent-effect” and the Activity [19] was “Dose-dependent-effect”. The viability at 2.5 µM [20] was 75.5%, the inhibition [21] was “Active” and the Activity [22] was 9.68%. For the same compound, the Activity [23] was “Non-toxic”, the Activity [24] was “Dose-dependent-effect” and the Activity [25] was “Non-toxic”. It also gave an Activity [26] of 4.53%, an Activity [9] of 9.68% and a viability at 5 µM [13] of 22.5%. For the same compound, the viability at 0.5 µM [27] was 80.9%, the Activity [28] was 11.68% and the Activity [29] was “Non-toxic”. The Activity [30] was “Non-toxic”, the Activity [14] was 1.46% and the Activity [31] was 21.63%. For the same compound, the Activity [32] was “Active”, the Activity [33] was 2.64% and the Activity [34] was 6.79%. For the same compound, the Activity [35] was “Non-toxic”, the Activity [36] was 9.73% and the Activity [37] was “Non-toxic”.
